According to ChEMBL document CHEMBL1155727, “Prunioside A: a new terpene glycoside from Spiraea prunifolia” (J Nat Prod, 2001):
The source made the active and inactive calls. The rule behind the calls is not given here.

Key:
Format in all cases: functional, cell-based
[1] = system: RAW264.7; assay: Inhibition of iNOS mRNA expression in LPS-stimulated mouse RAW264.7 cells at 0.1 to 20 ug/mL by RT-PCR analysis
[2] = system: RAW264.7; assay: Antiinflammatory activity in IFN-gamma-stimulated mouse RAW264.7 cells assessed as inhibition of nitric oxide production after 18 hrs by Griess reagent-based ELISA
[3] = system: RAW264.7; assay: Inhibition of iNOS mRNA expression in IFN-gamma-stimulated mouse RAW264.7 cells at 0.1 to 20 ug/mL by RT-PCR analysis
[4] = system: RAW264.7; assay: Antiinflammatory activity in LPS-stimulated mouse RAW264.7 cells assessed as inhibition of nitric oxide production after 18 hrs by Griess reagent-based ELISA
[5] = system: RAW264.7; assay: Antiinflammatory activity in IFN-gamma-stimulated mouse RAW264.7 cells assessed as inhibition of nitric oxide production at 200 ug/mL after 18 hrs by Griess reagent-based ELISA
[6] = system: RAW264.7; assay: Antiinflammatory activity in LPS-stimulated mouse RAW264.7 cells assessed as inhibition of nitric oxide production at 200 ug/mL after 18 hrs by Griess reagent-based ELISA

Row | SMILES | inhibition [1] | inhibition [2] | inhibition [3] | inhibition [4] | inhibition [5] | inhibition [6]
1 | C=C(C)C(OC(=O)/C=C/c1ccc(OC(C)=O)cc1)C1C/C(=C/CO[C@@H]2O[C@H](COC(C)=O)[C@@H](OC(C)=O)[C@H](OC(C)=O)[C@H]2OC(C)=O)C(=O)O1 (stereo partly specified) | Active | Dose-dependent effect | Active | Dose-dependent effect |  | 
2 | C=C(C)C(OC(=O)/C=C/c1ccc(O)cc1)C1C/C(=C/CO[C@@H]2O[C@H](CO)[C@@H](O)[C@H](O)[C@H]2O)C(=O)O1 (stereo partly specified) |  |  |  |  | inactive | inactive
